Results on one compound are retold here after publication PMC9394284, “Discovery of Novel Dual Adenosine A2A and A1 Receptor Antagonists with 1H-Pyrazolo[3,4-d]pyrimidin-6-amine Core Scaffold as Anti-Parkinson’s Disease Agents” (Pharmaceuticals, 2022).

This assay concerns the target T1, hA1 receptor (Homo sapiens, UniProt P30542).
T1 sequence (P30542 1-326): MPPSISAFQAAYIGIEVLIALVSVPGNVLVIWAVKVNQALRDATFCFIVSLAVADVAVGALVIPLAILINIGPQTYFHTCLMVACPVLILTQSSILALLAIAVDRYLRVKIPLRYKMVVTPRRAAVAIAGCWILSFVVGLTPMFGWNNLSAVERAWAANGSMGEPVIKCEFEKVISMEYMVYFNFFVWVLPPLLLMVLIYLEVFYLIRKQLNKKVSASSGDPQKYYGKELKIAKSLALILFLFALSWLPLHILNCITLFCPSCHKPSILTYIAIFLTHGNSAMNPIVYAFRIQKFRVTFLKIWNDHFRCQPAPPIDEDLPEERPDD
The assay is described as follows: radioligand binding to human A1 receptors, CHO-K1 membranes, [3H]DPCPX. The procedure: The radioligand-binding assays for adenosine receptors were performed at Eurofins Discovery Services (Panlabs, Taiwan). Briefly, stock solutions of the compounds were prepared in DMSO and further diluted with the incubation buffer to the desired concentration. Final DMSO concentrations in the assay were 1.0%. For adenosine A1 screening, a 10 μg aliquots of membrane preparations from human recombinant CHO-K1 cells stably expressing A1 receptors (CHO-K1-hA1AR clone3, EPDST, R200510) were incubated with 1 nM [^3H]DPCPX in incubation buffer (20 mM HEPES, pH 7.4, 10 mM MgCl2, 100 mM NaCl 1.40 nM) for 90 min at 25 °C. Nonspecific binding was estimated in the presence of 100 μM R(-)-PIA. Membranes were filtered and washed 3 times and the filters were counted to determine specifically bound [^3H]DPCPX. Chemical compounds were screened at 10 μM. For A2A screening, membrane preparations from human recombinant HEK-293 cells stably expressing A2A receptors (PerkinElmer, RBHA2AM) were incubated with 0.05 μM [^3H]CGS-21680 in incubation buffer (50 mM Tris-HCl, pH 7.4, 10 mM MgCl2, 1 mM EDTA, 2 U/mL Adenosine Deaminase) for 90 min at 25 °C. Nonspecific binding was estimated in the presence of 50.0 μM NECA. Membranes were filtered and washed 3 times and the filters were counted to determine [^3H]CGS-21680 specifically bound. For A2B screening, membrane preparations from human recombinant HEK-293 cells stably expressing A2B receptors (PerkinElmer, ES-013-M) were incubated with 1.6 nM [^3H]MRS1754 in incubation buffer (50 mM Tris-HCl, pH 6.5, 5 mM MgCl2, 1 mM EDTA, 0.01 % Bacitracin) for 90 min at 25 °C. Nonspecific binding was estimated in the presence of 100 μM NECA. Membranes were filtered and washed 3 times and the filters were counted to determine [^3H]MRS1754 specifically bound. For A3 screening, membrane preparations from human recombinant CHO-K1 cells stably expressing A3 receptors (PerkinElmer, ES-012-M) were incubated with 0.5 nM [^125I]AB-MECA in incubation buffer (25 mM HEPES, pH 7.4, 5 mM MgCl2, 1 mM CaCl2, 0.1 % BSA) for 60 min at 25 °C. Nonspecific binding was estimated in the presence of 1.0 μM IB-MECA.
IC50 values were determined by a nonlinear, least-squares regression analysis using MathIQ^TM (ID Business Solutions Ltd., Guildford, UK). Where inhibition constants (Ki) were presented, the Ki values were calculated using Cheng and Prusoff equation [18] using the observed IC50 of the compound, the concentration of radioligand employed in the assay, and the historical values for the KD of the ligand (obtained experimentally at Eurofins Panlabs, Inc.). The Hill coefficient (nH), which defines the slope of the competitive binding curve, was calculated using MathIQ^TM.

[1] abbreviates: average of duplicate experiments.

What is called IC50 is the concentration at which inhibition is half-maximal. As a reminder, the Ki is a dissociation constant, usually derived from enzyme kinetics or from competition with a known ligand. A higher Ki goes with weaker binding.

On to `Cc1cc(Cn2ncc3c(-c4cccc(C#N)c4F)nc(N)nc32)ccc1N` [11o, 3-(6-Amino-1-(4-amino-3-methylbenzyl)-1H-pyrazolo[3,4-d]pyrimidin-4-yl)-2-fluorobenzonitrile], for which the “nH (Hill coefficient), A1” value is 1.17. Under setting [1], this compound came in with a half-maximal inhibitory concentration (IC50) of 94 nM and a Ki of 55 nM.
